# Values of other authors in patent US20040087484A1, “Combination of organic compounds” (priority 2003, published 2004).
# Test system: male rats
# Conditions: used for the treatment of hypertensive disorder in male rats
compound,measurement,value
CCCCc1nc(Cl)c(CO)n1Cc1ccc(-c2ccccc2-c2nn[nH]n2)cc1 [losartan],preservation of sexual function,advantage in preservation of sexual function
